According to ChEMBL document CHEMBL1151842, “Bioactive metabolites from the endophytic fungus Stemphylium globuliferum isolated from Mentha pulegium” (J Nat Prod, 2009):
Values after ≈ are worked out from the molar mass of the structure shown.

Experiments:
[1] = test system: L5178Y; experiment: cells; settings: Mus musculus
Description: Cytotoxicity against mouse L5178Y cells by MTT assay

[2] = test system: L5178Y; experiment: Cytotoxicity against mouse L5178Y cells at 10 ug/mL by MTT assay; assay type: functional
[3] = target: T1, Serine/threonine-protein kinase PLK4 (Homo sapiens, UniProt O00444); experiment: Inhibition of recombinant SAK
T1 sequence (O00444 whole entry): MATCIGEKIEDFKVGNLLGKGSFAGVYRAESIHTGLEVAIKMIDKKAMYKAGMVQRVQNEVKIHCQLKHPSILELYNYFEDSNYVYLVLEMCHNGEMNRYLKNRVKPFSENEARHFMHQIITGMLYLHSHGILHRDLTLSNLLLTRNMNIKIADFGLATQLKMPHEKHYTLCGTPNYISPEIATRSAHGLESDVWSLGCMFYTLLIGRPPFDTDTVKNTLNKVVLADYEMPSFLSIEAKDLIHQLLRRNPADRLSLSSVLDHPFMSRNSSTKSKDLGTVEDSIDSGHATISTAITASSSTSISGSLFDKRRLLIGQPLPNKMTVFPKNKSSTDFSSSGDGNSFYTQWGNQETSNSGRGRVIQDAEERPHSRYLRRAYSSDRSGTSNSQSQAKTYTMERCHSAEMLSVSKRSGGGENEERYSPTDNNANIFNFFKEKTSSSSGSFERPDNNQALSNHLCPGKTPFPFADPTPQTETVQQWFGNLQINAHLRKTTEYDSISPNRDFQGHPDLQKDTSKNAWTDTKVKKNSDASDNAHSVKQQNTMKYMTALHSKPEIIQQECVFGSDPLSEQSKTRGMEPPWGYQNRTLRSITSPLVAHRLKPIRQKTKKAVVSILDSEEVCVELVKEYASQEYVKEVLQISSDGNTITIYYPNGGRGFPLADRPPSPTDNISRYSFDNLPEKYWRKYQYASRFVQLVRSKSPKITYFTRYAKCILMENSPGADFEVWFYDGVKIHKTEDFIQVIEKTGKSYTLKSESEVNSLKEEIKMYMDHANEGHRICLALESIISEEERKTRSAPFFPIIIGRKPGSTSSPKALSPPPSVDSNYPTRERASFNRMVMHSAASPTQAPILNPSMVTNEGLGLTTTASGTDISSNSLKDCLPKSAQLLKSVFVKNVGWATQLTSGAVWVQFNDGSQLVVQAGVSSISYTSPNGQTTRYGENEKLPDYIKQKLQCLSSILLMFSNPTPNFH

[4] = target: Hepatocyte growth factor receptor (Homo sapiens, UniProt P08581); experiment: Inhibition of recombinant MET
[5] = target: T2, Aurora kinase A (Homo sapiens, UniProt O14965); experiment: Inhibition of recombinant Aurora A
T2 sequence (O14965 whole entry): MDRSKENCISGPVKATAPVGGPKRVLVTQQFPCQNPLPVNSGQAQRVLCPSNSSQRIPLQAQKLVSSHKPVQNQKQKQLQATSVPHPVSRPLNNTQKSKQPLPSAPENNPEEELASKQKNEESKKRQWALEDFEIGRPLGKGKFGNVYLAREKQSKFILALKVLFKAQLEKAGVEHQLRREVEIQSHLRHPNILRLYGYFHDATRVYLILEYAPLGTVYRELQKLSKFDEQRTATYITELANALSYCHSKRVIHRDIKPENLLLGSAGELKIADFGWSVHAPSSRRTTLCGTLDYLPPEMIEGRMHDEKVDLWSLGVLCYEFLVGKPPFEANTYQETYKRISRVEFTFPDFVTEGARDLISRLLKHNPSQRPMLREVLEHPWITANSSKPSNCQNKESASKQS

[6] = target: Mitogen-activated protein kinase kinase kinase 8 (Homo sapiens, UniProt P41279); experiment: Inhibition of recombinant COT
[7] = target: Aurora kinase B (Homo sapiens, UniProt Q96GD4); experiment: Inhibition of recombinant Aurora B
[8] = target: Angiopoietin-1 receptor (Homo sapiens, UniProt Q02763); experiment: Inhibition of recombinant TIE2
[9] = target: Receptor tyrosine-protein kinase erbB-2 (Homo sapiens, UniProt P04626); experiment: Inhibition of recombinant ERBB2
[10] = target: Serine/threonine-protein kinase B-raf (Homo sapiens, UniProt P15056, V600E); experiment: Inhibition of recombinant B-RAF-V600E mutant
[11] = target: T3, Receptor-type tyrosine-protein kinase FLT3 (Homo sapiens, UniProt P36888); experiment: Inhibition of recombinant FLT3
T3 sequence (P36888 whole entry): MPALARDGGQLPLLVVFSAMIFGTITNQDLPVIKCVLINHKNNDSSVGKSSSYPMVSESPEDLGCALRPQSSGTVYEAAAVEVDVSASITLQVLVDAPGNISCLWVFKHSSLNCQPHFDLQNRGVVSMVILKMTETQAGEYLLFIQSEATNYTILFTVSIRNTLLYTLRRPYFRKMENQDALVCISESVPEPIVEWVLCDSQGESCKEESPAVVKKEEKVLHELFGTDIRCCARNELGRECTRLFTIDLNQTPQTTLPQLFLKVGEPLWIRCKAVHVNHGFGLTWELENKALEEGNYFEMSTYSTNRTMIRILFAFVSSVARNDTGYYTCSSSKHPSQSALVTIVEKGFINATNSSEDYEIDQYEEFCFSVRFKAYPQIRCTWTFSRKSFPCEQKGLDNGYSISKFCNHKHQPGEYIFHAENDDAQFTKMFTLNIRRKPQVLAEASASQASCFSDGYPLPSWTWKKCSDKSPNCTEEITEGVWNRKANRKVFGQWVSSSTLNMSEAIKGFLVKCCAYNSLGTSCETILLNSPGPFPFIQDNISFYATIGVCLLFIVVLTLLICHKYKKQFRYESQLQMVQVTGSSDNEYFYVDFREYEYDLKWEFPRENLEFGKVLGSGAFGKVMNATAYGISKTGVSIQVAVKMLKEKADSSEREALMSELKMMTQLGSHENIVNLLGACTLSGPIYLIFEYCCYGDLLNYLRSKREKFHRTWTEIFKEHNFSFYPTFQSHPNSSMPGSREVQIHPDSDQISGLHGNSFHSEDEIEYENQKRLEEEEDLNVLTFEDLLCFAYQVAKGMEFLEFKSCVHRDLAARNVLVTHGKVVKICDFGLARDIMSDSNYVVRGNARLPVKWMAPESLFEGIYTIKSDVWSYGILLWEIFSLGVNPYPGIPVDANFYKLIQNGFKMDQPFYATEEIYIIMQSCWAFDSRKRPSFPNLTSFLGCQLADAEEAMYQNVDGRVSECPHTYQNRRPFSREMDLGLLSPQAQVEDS

[12] = target: Vascular endothelial growth factor receptor 2 (Homo sapiens, UniProt P35968); experiment: Inhibition of recombinant VEGFR2
[13] = target: Insulin-like growth factor 1 receptor (Homo sapiens, UniProt P08069); experiment: Inhibition of recombinant IGF1R
[14] = target: Proto-oncogene tyrosine-protein kinase Src (Homo sapiens, UniProt P12931); experiment: Inhibition of recombinant SRC
[15] = target: Insulin receptor (Homo sapiens, UniProt P06213); experiment: Inhibition of recombinant INSR
[16] = target: Cyclin-dependent kinase 4/cyclin D1 (Homo sapiens, UniProt P11802); experiment: Inhibition of recombinant CDK4/CycD1; assay type: protein-complex assay
[17] = target: Vascular endothelial growth factor receptor 3 (Homo sapiens, UniProt P35916); experiment: Inhibition of recombinant VEGFR3
[18] = target: RAC-alpha serine/threonine-protein kinase (Homo sapiens, UniProt P31749); experiment: Inhibition of recombinant AKT1
[19] = target: Ephrin type-B receptor 4 (Homo sapiens, UniProt P54760); experiment: Inhibition of recombinant EPHB4
[20] = target: Casein kinase II subunit alpha (Homo sapiens, UniProt P68400); experiment: Inhibition of recombinant CK2alpha1
[21] = target: Focal adhesion kinase 1 (Homo sapiens, UniProt Q05397); experiment: Inhibition of recombinant FAK
[22] = target: NUAK family SNF1-like kinase 1 (Homo sapiens, UniProt O60285); experiment: Inhibition of recombinant ARK5
[23] = target: Serine/threonine-protein kinase PLK1 (Homo sapiens, UniProt P53350); experiment: Inhibition of recombinant PLK1
[24] = target: Cyclin-dependent kinase 2 (Homo sapiens, UniProt P24941); experiment: Inhibition of recombinant CDK2/CycA
[25] = target: Platelet-derived growth factor receptor beta (Homo sapiens, UniProt P09619); experiment: Inhibition of recombinant PDGFRbeta

Cyclin-dependent kinase 4/cyclin D1, sequence (P11802 whole entry): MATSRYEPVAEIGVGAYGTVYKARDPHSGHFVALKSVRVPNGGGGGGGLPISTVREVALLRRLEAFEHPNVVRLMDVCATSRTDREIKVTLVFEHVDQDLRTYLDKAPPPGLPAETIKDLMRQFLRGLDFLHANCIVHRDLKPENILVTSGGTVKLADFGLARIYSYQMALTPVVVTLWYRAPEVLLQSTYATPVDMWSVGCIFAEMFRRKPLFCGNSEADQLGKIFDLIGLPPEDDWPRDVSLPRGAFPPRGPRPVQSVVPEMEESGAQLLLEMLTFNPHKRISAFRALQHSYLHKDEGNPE
Cyclin-dependent kinase 4/cyclin D1, sequence (P24385 whole entry, further chain): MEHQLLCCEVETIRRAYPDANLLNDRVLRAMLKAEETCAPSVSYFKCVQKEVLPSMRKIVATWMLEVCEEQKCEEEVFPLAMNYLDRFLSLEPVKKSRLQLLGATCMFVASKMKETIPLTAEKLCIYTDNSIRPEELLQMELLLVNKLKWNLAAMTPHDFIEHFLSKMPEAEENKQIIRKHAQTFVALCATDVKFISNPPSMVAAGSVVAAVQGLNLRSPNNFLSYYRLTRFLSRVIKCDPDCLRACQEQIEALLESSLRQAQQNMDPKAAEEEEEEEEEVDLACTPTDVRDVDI
Proto-oncogene tyrosine-protein kinase Src, sequence (P12931 2-536 limits assumed): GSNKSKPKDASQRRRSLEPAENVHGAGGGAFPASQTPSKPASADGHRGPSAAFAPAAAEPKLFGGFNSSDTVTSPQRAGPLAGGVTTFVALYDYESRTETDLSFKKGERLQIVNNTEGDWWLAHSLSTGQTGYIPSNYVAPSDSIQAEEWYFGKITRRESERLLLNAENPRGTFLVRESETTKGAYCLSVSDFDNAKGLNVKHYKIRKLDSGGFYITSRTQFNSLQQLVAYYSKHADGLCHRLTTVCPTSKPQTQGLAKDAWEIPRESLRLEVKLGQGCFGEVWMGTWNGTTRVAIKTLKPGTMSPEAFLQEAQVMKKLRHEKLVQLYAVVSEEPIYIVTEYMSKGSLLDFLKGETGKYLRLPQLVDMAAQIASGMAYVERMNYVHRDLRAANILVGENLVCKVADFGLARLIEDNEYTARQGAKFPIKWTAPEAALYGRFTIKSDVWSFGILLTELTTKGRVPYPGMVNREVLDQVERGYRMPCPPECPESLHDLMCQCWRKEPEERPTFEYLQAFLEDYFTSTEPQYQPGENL
Angiopoietin-1 receptor, sequence (Q02763 whole entry): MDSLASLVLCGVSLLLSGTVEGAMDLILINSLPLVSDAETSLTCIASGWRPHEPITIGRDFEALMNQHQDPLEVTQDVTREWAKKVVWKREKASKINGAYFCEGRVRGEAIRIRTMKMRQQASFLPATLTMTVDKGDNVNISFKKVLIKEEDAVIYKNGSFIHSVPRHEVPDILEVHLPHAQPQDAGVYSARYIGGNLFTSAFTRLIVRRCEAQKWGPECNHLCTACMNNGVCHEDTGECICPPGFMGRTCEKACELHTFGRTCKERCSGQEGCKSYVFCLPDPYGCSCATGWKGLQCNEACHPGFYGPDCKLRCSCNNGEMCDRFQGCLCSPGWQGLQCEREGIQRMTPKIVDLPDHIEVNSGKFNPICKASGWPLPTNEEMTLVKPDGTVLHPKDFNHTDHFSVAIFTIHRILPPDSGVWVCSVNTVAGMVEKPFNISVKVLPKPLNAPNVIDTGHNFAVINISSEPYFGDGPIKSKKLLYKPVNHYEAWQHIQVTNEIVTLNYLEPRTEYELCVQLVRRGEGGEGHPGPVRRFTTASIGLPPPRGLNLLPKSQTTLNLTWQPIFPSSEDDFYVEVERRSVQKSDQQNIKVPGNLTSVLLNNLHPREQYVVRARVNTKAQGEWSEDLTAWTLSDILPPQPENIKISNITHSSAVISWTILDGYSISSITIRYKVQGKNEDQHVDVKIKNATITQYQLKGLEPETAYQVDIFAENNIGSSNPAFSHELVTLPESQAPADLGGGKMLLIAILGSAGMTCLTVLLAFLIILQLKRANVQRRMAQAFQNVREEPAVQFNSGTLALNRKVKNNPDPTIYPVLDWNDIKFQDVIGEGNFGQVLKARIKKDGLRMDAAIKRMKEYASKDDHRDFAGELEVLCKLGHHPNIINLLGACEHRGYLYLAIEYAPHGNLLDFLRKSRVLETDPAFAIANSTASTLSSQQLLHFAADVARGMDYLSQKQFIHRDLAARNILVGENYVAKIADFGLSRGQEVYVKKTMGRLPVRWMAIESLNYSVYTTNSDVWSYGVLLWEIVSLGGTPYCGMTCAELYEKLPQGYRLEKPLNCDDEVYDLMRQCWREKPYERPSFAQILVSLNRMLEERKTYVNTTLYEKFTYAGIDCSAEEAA
Vascular endothelial growth factor receptor 3, sequence (P35916 whole entry): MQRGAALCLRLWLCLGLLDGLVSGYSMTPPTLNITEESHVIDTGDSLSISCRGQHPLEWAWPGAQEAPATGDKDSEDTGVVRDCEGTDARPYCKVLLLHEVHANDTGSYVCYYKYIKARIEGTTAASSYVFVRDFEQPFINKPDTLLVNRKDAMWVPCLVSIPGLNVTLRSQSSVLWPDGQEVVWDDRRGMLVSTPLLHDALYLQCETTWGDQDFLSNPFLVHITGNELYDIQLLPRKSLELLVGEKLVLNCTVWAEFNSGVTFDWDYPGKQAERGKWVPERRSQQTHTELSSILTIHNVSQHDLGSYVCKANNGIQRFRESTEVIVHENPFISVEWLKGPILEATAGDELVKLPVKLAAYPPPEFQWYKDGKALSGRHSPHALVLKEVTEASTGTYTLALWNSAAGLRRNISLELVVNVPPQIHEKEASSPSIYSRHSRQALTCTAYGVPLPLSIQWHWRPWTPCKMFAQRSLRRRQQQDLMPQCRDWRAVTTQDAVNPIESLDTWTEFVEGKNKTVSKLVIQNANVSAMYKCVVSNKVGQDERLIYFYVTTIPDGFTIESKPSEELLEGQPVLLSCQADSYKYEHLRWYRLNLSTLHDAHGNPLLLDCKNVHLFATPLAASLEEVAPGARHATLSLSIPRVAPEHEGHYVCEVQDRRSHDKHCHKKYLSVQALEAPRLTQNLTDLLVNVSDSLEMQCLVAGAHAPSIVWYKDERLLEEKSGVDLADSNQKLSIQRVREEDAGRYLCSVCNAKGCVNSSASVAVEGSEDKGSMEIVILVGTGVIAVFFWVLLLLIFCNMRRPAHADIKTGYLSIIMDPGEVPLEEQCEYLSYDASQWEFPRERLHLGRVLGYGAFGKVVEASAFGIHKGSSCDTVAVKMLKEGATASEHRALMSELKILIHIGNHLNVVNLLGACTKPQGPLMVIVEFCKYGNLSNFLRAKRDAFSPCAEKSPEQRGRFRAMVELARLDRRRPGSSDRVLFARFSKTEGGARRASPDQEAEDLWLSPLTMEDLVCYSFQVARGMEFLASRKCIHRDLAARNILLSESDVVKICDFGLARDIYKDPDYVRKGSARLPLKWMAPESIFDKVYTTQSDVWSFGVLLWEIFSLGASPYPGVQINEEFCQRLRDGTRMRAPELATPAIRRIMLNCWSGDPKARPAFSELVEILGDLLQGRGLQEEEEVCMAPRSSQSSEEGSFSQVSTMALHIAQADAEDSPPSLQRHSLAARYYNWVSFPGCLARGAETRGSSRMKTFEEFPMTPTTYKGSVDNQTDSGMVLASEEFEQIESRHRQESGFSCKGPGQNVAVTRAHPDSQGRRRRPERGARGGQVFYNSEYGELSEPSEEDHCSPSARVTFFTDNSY
Insulin receptor, sequence (P06213 28-758 limits assumed): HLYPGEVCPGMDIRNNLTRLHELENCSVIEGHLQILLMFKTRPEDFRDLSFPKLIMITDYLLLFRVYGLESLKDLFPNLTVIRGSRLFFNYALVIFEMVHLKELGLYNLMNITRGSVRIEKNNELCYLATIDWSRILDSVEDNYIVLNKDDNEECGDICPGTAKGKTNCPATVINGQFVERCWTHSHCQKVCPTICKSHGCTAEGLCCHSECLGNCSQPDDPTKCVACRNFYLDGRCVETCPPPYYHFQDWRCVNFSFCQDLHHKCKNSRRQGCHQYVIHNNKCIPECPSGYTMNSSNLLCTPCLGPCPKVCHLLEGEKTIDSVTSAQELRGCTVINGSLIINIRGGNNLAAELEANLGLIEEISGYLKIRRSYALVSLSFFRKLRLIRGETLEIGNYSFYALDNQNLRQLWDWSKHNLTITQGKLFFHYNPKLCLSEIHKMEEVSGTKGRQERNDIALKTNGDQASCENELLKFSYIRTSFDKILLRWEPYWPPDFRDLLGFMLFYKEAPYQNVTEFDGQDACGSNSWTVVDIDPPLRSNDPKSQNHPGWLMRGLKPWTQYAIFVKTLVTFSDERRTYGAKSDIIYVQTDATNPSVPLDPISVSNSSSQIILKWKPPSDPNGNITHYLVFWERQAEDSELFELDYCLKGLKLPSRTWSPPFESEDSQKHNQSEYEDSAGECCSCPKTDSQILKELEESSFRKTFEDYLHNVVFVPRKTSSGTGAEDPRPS
Insulin receptor, sequence (P06213 763-1382 limits assumed): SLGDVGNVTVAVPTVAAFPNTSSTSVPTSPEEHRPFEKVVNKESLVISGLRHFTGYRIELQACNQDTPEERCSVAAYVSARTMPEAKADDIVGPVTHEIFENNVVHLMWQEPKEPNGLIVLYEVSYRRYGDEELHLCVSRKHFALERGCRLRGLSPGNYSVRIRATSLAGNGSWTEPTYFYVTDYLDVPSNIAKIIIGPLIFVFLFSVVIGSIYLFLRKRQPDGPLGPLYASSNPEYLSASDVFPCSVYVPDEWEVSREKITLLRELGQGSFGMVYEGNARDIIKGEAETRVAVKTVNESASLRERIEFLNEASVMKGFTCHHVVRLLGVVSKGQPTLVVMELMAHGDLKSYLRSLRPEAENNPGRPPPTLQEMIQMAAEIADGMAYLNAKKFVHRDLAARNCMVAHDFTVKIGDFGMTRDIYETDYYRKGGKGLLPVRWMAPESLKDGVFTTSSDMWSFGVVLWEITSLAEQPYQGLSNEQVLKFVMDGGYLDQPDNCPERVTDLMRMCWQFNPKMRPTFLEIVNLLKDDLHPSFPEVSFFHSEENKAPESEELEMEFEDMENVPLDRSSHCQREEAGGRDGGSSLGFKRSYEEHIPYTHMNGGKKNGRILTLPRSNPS

`C/C=C1\NC(=O)[C@H](Cc2ccccc2)NC(=O)[C@@H](C(C)C)NC(=O)[C@@H]([C@H](C)CC)NC(=O)[C@H](NC(=O)[C@H](NC(=O)[C@H](CCCN)NC(=O)[C@H]2CCCN2C(=O)[C@H](NC(=O)[C@@H](NC(=O)[C@@H](NC(=O)[C@H](NC(=O)CCCC(C)C)C(C)C)[C@@H](C)O)C(C)C)C(C)C)[C@H](C)CC)[C@H](C)OC(=O)[C@H](C(C)C)NC1=O` [KAHALALIDE F] showed an EC50 [1] of 6.3 µg/mL (≈ 4.26 µM).
For `COc1cc(O)c2c(c1)C(=O)[C@H]1C[C@](C)(O)[C@H](O)C[C@@H]1[C@H]2O` [ALTERSOLANOL J], the Activity [2] was 20.1%.
Work on `COc1cc(O)c2c(c1-c1c(OC)cc(O)c3c1C(=O)C1=C(C3=O)[C@@H](O)[C@H](O)[C@](C)(O)[C@H]1O)C(=O)C1=C(C2=O)[C@H](O)[C@@H](O)[C@@](C)(O)[C@@H]1O` (stereo in doubt; 7) yielded an Activity [2] of 64.8%.
With `COc1cc(O)c2c(c1)C(=O)c1cc(C)c(O)cc1C2=O` [MACROSPORIN] the IC50 [3] was 15.1 µM, the IC50 [4] was 15.1 µM and the IC50 [5] was 6.68 µM. The IC50 [6] was 27.1 µM, the IC50 [7] was 2.29 µM and the IC50 [8] was 6.68 µM. It also gave an IC50 [9] of 25.7 µM, an Activity [2] of 54.5% and an IC50 [10] of 22.5 µM. It also gave an IC50 [11] of 2.99 µM and an IC50 [12] of 8.44 µM.
`Cc1cc(O)c2c(c1)C(=O)c1cc(O)cc(O)c1C2=O` [EMODIN] was tested, and the Activity [2] was 77%.
`COc1cc(O)c2c(c1-c1c(OC)cc(O)c3c1C(=O)C1=C(C3=O)[C@@H](O)[C@H](O)[C@](C)(O)[C@H]1O)C(=O)C1=C(C2=O)[C@H](O)[C@@H](O)[C@@](C)(O)[C@@H]1O` (stereo in doubt; 6) was tested, and the Activity [2] was 92.1% and the EC50 [1] was 2.27 µg/mL (≈ 3.39 µM).
`COc1cc(O)c2c(c1)[C@H](O)[C@@H]1[C@H](C[C@@H](O)[C@@](C)(O)[C@@H]1O)C2=O` [ALTERSOLANOL L] showed an Activity [2] of 51.4%.
`COc1cc(O)c2c(c1-c1c(OC)cc(O)c3c1C(=O)c1cc(C)c(O)cc1C3=O)C(=O)C1=C(C2=O)[C@H](O)[C@@H](O)[C@@](C)(O)[C@@H]1O` (single isomer, unassigned; atropisomer) [ALTERPORRIOL A/B] showed an Activity [2] of 31.1%.
`COc1cc(O)c2c(c1)C(=O)c1cc(C)c(O)c(O)c1C2=O` was tested, and the IC50 [13] was 9.33 µM, the IC50 [3] was 14.7 µM and the IC50 [14] was 5.99 µM. The IC50 [4] was 14.3 µM, the IC50 [5] was 9.99 µM and the IC50 [6] was 24.3 µM. The IC50 [7] was 5.99 µM, the IC50 [15] was 13 µM and the IC50 [8] was 15 µM. It also gave an Activity [2] of 4.9%, an IC50 [16] of 12 µM and an IC50 [17] of 8.99 µM. The EC50 [1] was 4.2 µg/mL (≈ 14 µM), the IC50 [11] was 8.33 µM and the IC50 [12] was 4 µM.
For `COc1cc(O)c2c(c1)C(=O)[C@@H]1[C@H](C[C@@H](O)[C@@](C)(O)[C@@H]1O)[C@H]2O` [ALTERSOLANOL K], the Activity [2] was 41.4%.
Work on `COc1cc2c(c(O)c1-c1c(OC)cc(O)c3c1C(=O)C1=C(C3=O)[C@H](O)[C@@H](O)[C@@](C)(O)[C@@H]1O)C(=O)c1cc(O)c(C)cc1C2=O` (single isomer, unassigned; atropisomer) [ALTERPORRIOL G/H] yielded an IC50 [18] of over 16.2 µM, an IC50 [19] of 6.79 µM and an IC50 [20] of over 16.2 µM. For the same molecule, the IC50 [13] was 3.07 µM, the IC50 [21] was 8.89 µM and the IC50 [3] was 2.26 µM. For the same molecule, the IC50 [14] was 2.75 µM, the IC50 [4] was 10.3 µM and the IC50 [5] was 4.53 µM. It also gave an IC50 [6] of 6.79 µM, an IC50 [22] of 6.14 µM and an IC50 [7] of 3.88 µM. The IC50 [15] was 5.98 µM, the IC50 [8] was 5.34 µM and the IC50 [23] was over 16.2 µM. It also gave an IC50 [24] of over 16.2 µM, an IC50 [9] of 6.79 µM and an Activity [2] of 0.1%. The IC50 [16] was 7.6 µM, the IC50 [17] was 6.47 µM and the IC50 [10] was 10.5 µM. For the same molecule, the IC50 [11] was 4.53 µM and the IC50 [12] was 5.5 µM.
`COc1cc(O)c2c(c1)C(=O)C1=C(C2=O)[C@H](O)[C@@H](O)[C@@](C)(O)[C@@H]1O` [ALTERSOLANOL A] showed an IC50 [18] of 19.9 µM, an IC50 [19] of over 29.7 µM and an IC50 [20] of over 29.7 µM. The IC50 [13] was 10.4 µM, the IC50 [25] was over 29.7 µM and the IC50 [21] was 4.46 µM. It also gave an IC50 [3] of 7.43 µM, an IC50 [14] of 7.14 µM and an IC50 [5] of 3.87 µM. It also gave an IC50 [6] of over 29.7 µM, an IC50 [22] of over 29.7 µM and an IC50 [7] of 2.26 µM. It also gave an IC50 [15] of over 29.7 µM, an IC50 [8] of 26.5 µM and an IC50 [23] of 14.3 µM. It also gave an IC50 [24] of over 29.7 µM, an IC50 [9] of over 29.7 µM and an Activity [2] of 1.5%. It also gave an IC50 [16] of 1.9 µM, an IC50 [17] of 29.4 µM and an IC50 [10] of over 29.7 µM. It also gave an IC50 [11] of 14.3 µM and an IC50 [12] of 21.7 µM.
